Laboratory results as given in patent US7097977B1, “Target of anticancer agent” (priority 2000, dated 2006).

Test system: rad51c, rad51d, xrcc2 and xrcc3 mutant DT40 cells
Test: colony survival assay on methyl cellulose containing cisplatin
Format: cell-based, avian
Conditions: continuous cisplatin in methyl cellulose plate; each mutant vs normal cells
Procedure: Further, the cells were plated on a plate of methyl cellulose containing cisplatin (manufactured by NIPPON KAYAKU CO., LTD.), and cultured in an atmosphere of 5% CO2 and 20% O2, at humidity of 100%, and 39° C. Thereafter, the colony survival assay was carried out, thereby evaluating sensitivity of the cells to cisplatin.
However, as shown in the panel (B) of FIG. 3, each mutant was about 8-fold more sensitive than normal cells to killing by cisplatin (cis-diamminedichloroplatinum-II), a DNA cross-linking agent that has been widely used in chemotherapy. The complementation of these mutants with human cDNAs corresponding to mutant genes in these mutants restored their cisplatin sensitivity to nearly normal levels.

Question: N.N.[Cl][Pt][Cl] [cisplatin, cis-diamminedichloroplatinum-II] was tested. Which “sensitivity of each mutant to killing relative to normal cells” value did it give?
Answer: about 8 fold
